US20220110993A1, “COMPOSITIONS FOR TREATMENT OF JAW PAIN, TEMPOROMANDIBULAR JOINT AND MUSCLE DISORDER AND BRUXISM” (LAB-O Corp., priority 2020, published 2022)

Tests used:
[1] = cited from earlier work
[2] = test system: normal skin; experiment: Human Repeat Insult Patch Test (RIPT); format: in vivo; details: RIPT positive control
Method: The objective of the study was to determine irritation and sensitization potential of the composition as a test material after repeated application to skin. Contact sensitization was measured by treatment emergent adverse events (TEAE5), reaction grade and investigator assessment of irritation and sensitization. An informed consent was obtained from each volunteer prior to initiating the study. The consent form described reasons for the study, possible adverse effects, associated risks and potential benefits of the treatment and their limits of liability. […] The present composition was tested under occlusive conditions and placed on an 8-millimeter aluminum Finn Chamber (Epitest Ltd. Oy, Tuusula, Finland) supported on Scanpor Tape (Norgesplaster A/S, Kristiansand, Norway). Alternatively, an 8-mm filter paper coated aluminum Finn Chamber AQUA can be supported on a thin flexible transparent polyurethane rectangular film coated on one side with a medical grade acrylic adhesive, consistent with adhesive used in state-of-the-art hypoallergenic surgical tapes or a 7 mm IQ-ULTRA closed cell system. Such a closed cell system is made of additive-free polyethylene plastic foam with a filter paper incorporated (supplied in units of 10 chambers on a hypoallergenic non-woven adhesive tape having a width of 52 mm and a length of 118 mm) or other equivalents. […] Test materials to be tested in an open patch were applied and rubbed directly onto the back of the subject. Approximately 0.02-0.05 mL (in case of liquids) and/or 0.02-0.05 gm (in case of solids) of the test material was used for the study. Liquid test material was dispensed on a 7.5 mm paper disk, which fit in the Finn Chamber. The following procedure was applied: • 1. Subjects were requested to bathe or wash as usual before arrival at the facility. • 2. […] Patches remained in place for 48 hours after the first application. • 4. Subjects were instructed not to remove the patches prior to their 48 hour scheduled visit. • 5. Thereafter, subjects were instructed to remove patches 24 hours after application for the remainder of the study. • 6. […] Prior to each reapplication, the test sites evaluated by trained laboratory personnel. • 8. Following a 10-14 day rest period a retest/challenge dose was applied once to a previously unexposed test site. Test sites were evaluated by trained laboratory personnel 48 and 96 hours after application. In the event of an adverse reaction, the area of erythema and edema were to be measured. Edema is estimated by the evaluation of the skin with respect to the contour of the unaffected normal skin. Subjects were instructed to report any delayed reactions that might occur after the final reading. […] Site discontinued • Dc: Subject discontinued voluntarily • DcI: Subject discontinued per Investigator

Row | SMILES | solubility in oil and alcohol [1] | subjects with a Grade 1 reaction ([2]; Grade 1: erythema) [subjects] | subjects with a Grade 2 reaction ([2]; Grade 2: erythema and induration) [subjects] | subjects with a Grade 3 reaction ([2]; Grade 3: erythema, induration and vesicles) [subjects] | subjects with a Grade 4 reaction ([2]; Grade 4: erythema, induration and bullae) [subjects] | subjects with a delayed Grade 2 reaction ([2]; delayed reaction) [subjects]
1 | CC(C)C1CC[C@@H](C)C[C@H]1O (single isomer, unassigned; (-)) [Menthol crystals, (−)-menthol] | soluble in both oil and alcohol | – | – | – | – | –
2 | CCCCCCCCCCCCOS(=O)(=O)[O-].[Na+] [2.0% Sodium Lauryl Sulfate Solution, Sodium Lauryl Sulfate] | – | 12 | 4 | 1 | 3 | 1
